Measurements taken from DBAASP.
In brackets after ≈: the same amount, converted by molar mass.

Experiments:
Assay in all cases: ≥ marks a high value that may be exact or a test limit, other limits are often not marked, values filed in µg/mL are converted to µM
[1] = system: Acinetobacter baumannii NM35
[2] = system: Acinetobacter baumannii NM8
[3] = system: Escherichia coli ATCC 25726
[4] = system: Staphylococcus aureus 127/08
[5] = system: Staphylococcus aureus ATCC 25923
[6] = system: Stenotrophomonas maltophilia B32/1
[7] = system: Stenotrophomonas maltophilia B32/4
[8] = system: Corynebacterium xerosis C875
[9] = system: Escherichia coli ATCC 25922
Escherichia coli DC2 = system: Escherichia coli DC2
Escherichia coli UB1005 = system: Escherichia coli UB1005
[10] = system: Pseudomonas aeruginosa ATCC 27853
[11] = system: Staphylococcus epidermidis C621
Bacillus subtilis = system: Bacillus subtilis
[12] = system: Candida albicans ATCC 90028
Enterobacter cloacae = system: Enterobacter cloacae
Escherichia coli = system: Escherichia coli
Pseudomonas aeruginosa = system: Pseudomonas aeruginosa
[13] = system: Salmonella enterica subsp. enterica serovar Typhi
Staphylococcus aureus = system: Staphylococcus aureus

MIC [1] | MIC [2] | MIC [3] | MIC [4] | MIC [5] | MIC [6] | MIC [7] | MIC [8] | MIC [9] | MIC (Escherichia coli DC2) | MIC (Escherichia coli UB1005) | MIC [10] | MIC [11] | MIC (Bacillus subtilis) | MIC [12] | MIC (Enterobacter cloacae) | MIC (Escherichia coli) | MIC (Pseudomonas aeruginosa) | MIC [13] | MIC (Staphylococcus aureus) | Structure (SMILES)
≥ 200 µM | ≥ 200 µM | ≥ 200 µM | ≥ 200 µM | > 200 µM | ≥ 200 µM | ≥ 200 µM |  |  |  |  |  |  |  |  |  |  |  |  |  | CC[C@H](C)[C@@H]1NC(=O)[C@H](CCCCN)NC(=O)[C@@H](NC(=O)[C@H](C)NC(=O)[C@@H](NC(=O)[C@H](CC(C)C)NC(=O)[C@H](CC(=O)O)NC(=O)[C@@H](NC(=O)CNC(=O)[C@H](CC(C)C)NC(=O)[C@H](CCCCN)NC(=O)[C@H](C)NC(=O)[C@H](CC(C)C)NC(=O)[C@H](CC(=O)O)NC(=O)[C@H](CCCCN)NC(=O)CNC(=O)[C@H](CC(C)C)NC(=O)CN)C(C)C)C(C)C)CSSC[C@@H](C(=O)O)NC(=O)[C@H](CCC(N)=O)NC(=O)[C@H](CCCCN)NC(=O)[C@H](CO)NC1=O [GLGKDLAKLGVDLVACKISKQC]
 |  |  |  |  |  |  | 0.5 µM (≈ 0.918 µg/mL) | 16 µM (≈ 29.4 µg/mL) | 0.5 µM (≈ 0.918 µg/mL) | 2 µM (≈ 3.67 µg/mL) | 16 µM (≈ 29.4 µg/mL) | 8 µM (≈ 14.7 µg/mL) |  |  |  |  |  |  |  | C[C@H](NC(=O)[C@H](C)NC(=O)[C@H](C)NC(=O)[C@H](Cc1c[nH]c2ccccc12)NC(=O)[C@H](Cc1ccccc1)NC(=O)[C@H](C)NC(=O)[C@H](C)NC(=O)[C@H](C)NC(=O)[C@H](C)NC(=O)[C@H](CCCCN)NC(=O)[C@H](CCCCN)NC(=O)[C@H](CCCCN)NC(=O)[C@H](CCCCN)NC(=O)[C@H](CCCCN)NC(=O)[C@@H](N)CCCCN)C(=O)N[C@@H](C)C(=O)N[C@@H](Cc1ccccc1)C(N)=O [KKKKKKAAAAFWAAAAF]
 |  |  |  | 1.73 µM (≈ 4 µg/mL) |  |  |  | 6.93 µM (≈ 16 µg/mL) |  |  | 27.7 µM (≈ 64 µg/mL) |  | 27.7 µM (≈ 64 µg/mL) | 27.7 µM (≈ 64 µg/mL) | ≥ 55.4 µM | 55.4 µM (≈ 128 µg/mL) | 3.46 µM (≈ 8 µg/mL) | 0.866 µM (≈ 2 µg/mL) | 55.4 µM (≈ 128 µg/mL) | CC(C)C[C@H](NC(=O)[C@H](CCCCN)NC(=O)[C@H](CCCN=C(N)N)NC(=O)[C@H](Cc1ccccc1)NC(=O)[C@H](Cc1ccccc1)NC(=O)[C@H](CCCCN)NC(=O)[C@H](CCCCN)NC(=O)[C@H](Cc1ccccc1)NC(=O)[C@H](CCCN=C(N)N)NC(=O)[C@H](CCCCN)NC(=O)[C@@H](NC(=O)[C@@H](N)CC(C)C)C(C)C)C(=O)N[C@@H](CCCCN)C(=O)N[C@@H](CCCCN)C(=O)N[C@@H](CO)C(=O)N[C@H](C(=O)N[C@@H](CCCCN)C(=O)N[C@@H](CCCCN)C(N)=O)C(C)C [LVKRFKKFFRKLKKSVKK]
 |  |  |  | 117 µM (≈ 256 µg/mL) |  |  |  | 117 µM (≈ 256 µg/mL) |  |  | 29.3 µM (≈ 64 µg/mL) |  | 14.7 µM (≈ 32 µg/mL) | 14.7 µM (≈ 32 µg/mL) | 14.7 µM (≈ 32 µg/mL) | 14.7 µM (≈ 32 µg/mL) | 1.83 µM (≈ 4 µg/mL) | 0.917 µM (≈ 2 µg/mL) | 58.7 µM (≈ 128 µg/mL) | CC(C)C[C@H](NC(=O)[C@H](CCCCN)NC(=O)[C@H](CCCN=C(N)N)NC(=O)[C@H](Cc1ccccc1)NC(=O)[C@H](Cc1ccccc1)NC(=O)[C@H](CCCCN)NC(=O)[C@H](CCCCN)NC(=O)[C@H](Cc1ccccc1)NC(=O)[C@H](CCCN=C(N)N)NC(=O)[C@H](CCCCN)NC(=O)[C@@H](NC(=O)[C@@H](N)CC(C)C)C(C)C)C(=O)N[C@@H](CCCCN)C(=O)N[C@@H](CCCCN)C(=O)N[C@@H](CO)C(=O)N[C@H](C(=O)N[C@@H](CCCCN)C(N)=O)C(C)C [LVKRFKKFFRKLKKSVK]
